Test results taken from paper PMC4601599, “High-resolution structures of Lactobacillus salivarius transketolase in the presence and absence of thiamine pyrophosphate” (Acta Crystallographica. Section F, Structural Biology …, 2015).

T1: LsTktA (Lactobacillus salivarius UCC118 transketolase) (Ligilactobacillus salivarius, UniProt Q1WQU8)
T1 construct: gene tktA; pOPINF, His-tagged, expressed in E. coli Rosetta pLysS (DE3); 680 residues with tag; 662 residues modelled; homodimer; megaplasmid pMP118-encoded
T1 sequence (Q1WQU8 1-663): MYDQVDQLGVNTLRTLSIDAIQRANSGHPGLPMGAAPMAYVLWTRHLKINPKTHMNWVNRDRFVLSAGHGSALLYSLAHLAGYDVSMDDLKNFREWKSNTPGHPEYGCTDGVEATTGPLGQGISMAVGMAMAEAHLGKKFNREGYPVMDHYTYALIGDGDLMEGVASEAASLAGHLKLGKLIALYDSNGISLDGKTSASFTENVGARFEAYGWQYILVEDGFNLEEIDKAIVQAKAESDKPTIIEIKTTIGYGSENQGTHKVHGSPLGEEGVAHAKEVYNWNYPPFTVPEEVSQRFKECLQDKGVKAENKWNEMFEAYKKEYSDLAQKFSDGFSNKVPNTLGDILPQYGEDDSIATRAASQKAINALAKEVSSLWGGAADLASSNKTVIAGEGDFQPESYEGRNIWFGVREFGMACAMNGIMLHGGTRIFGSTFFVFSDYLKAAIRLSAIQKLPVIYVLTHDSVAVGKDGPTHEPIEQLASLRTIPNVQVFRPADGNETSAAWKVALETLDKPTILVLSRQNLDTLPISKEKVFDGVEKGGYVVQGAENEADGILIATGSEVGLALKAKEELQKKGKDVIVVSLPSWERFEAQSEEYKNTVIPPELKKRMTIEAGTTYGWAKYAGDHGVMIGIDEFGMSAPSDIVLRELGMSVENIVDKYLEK


Columns and labels:
[1] = target: T1, LsTktA (Lactobacillus salivarius UCC118 transketolase); test: X-ray crystal structure of co-crystal, […] A; format: binding; details: Mg2+; co-crystallised with 0.5 mM TPP and 2 mM MgCl2; pH 7.5; 293 K; site at dimer interface
[2] = target: the molecule itself; test: SEC-MALS; Superdex 200 Increase 10/300 GL, 20 mM Tris-HCl pH 7.5, 200 mM NaCl, 0.5 mM TCEP, 20 C, with and without 0.5 mM TPP; about 1 mg/ml; dimer and monomer

Molecule | X-ray crystal structure of co-crystal, 2.29 A [1] | stoichiometry N [2]
Cc1ncc(C[n+]2csc(CCOP(=O)(O)OP(=O)(O)O)c2C)c(N)n1 [thiamine pyrophosphate] | Two symmetrical TPP cofactor-binding sites are located at the LsTktA dimer interface | –
Lactobacillus salivarius UCC118 transketolase (LsTktA) (enzyme, UniProt Q1WQU8 1-663, looked up, Transketolase (tktA, LSL_1946) of Lactobacillus salivarius UCC118, encoded on the megaplasmid pMP118; the histidine-tagged protein consists of 680 amino acids; 662 amino acids are modelled in the crystal structures; Crystallised apo and with TPP and Mg2+; also called L. salivarius Tkt; LSL_1946; source: E. coli Rosetta pLysS (DE3), purified (nickel-chelation chromatography, gel filtration)) MYDQVDQLGVNTLRTLSIDAIQRANSGHPGLPMGAAPMAYVLWTRHLKINPKTHMNWVNRDRFVLSAGHGSALLYSLAHLAGYDVSMDDLKNFREWKSNTPGHPEYGCTDGVEATTGPLGQGISMAVGMAMAEAHLGKKFNREGYPVMDHYTYALIGDGDLMEGVASEAASLAGHLKLGKLIALYDSNGISLDGKTSASFTENVGARFEAYGWQYILVEDGFNLEEIDKAIVQAKAESDKPTIIEIKTTIGYGSENQGTHKVHGSPLGEEGVAHAKEVYNWNYPPFTVPEEVSQRFKECLQDKGVKAENKWNEMFEAYKKEYSDLAQKFSDGFSNKVPNTLGDILPQYGEDDSIATRAASQKAINALAKEVSSLWGGAADLASSNKTVIAGEGDFQPESYEGRNIWFGVREFGMACAMNGIMLHGGTRIFGSTFFVFSDYLKAAIRLSAIQKLPVIYVLTHDSVAVGKDGPTHEPIEQLASLRTIPNVQVFRPADGNETSAAWKVALETLDKPTILVLSRQNLDTLPISKEKVFDGVEKGGYVVQGAENEADGILIATGSEVGLALKAKEELQKKGKDVIVVSLPSWERFEAQSEEYKNTVIPPELKKRMTIEAGTTYGWAKYAGDHGVMIGIDEFGMSAPSDIVLRELGMSVENIVDKYLEK | – | 2
